Results from patent publication US12673927B2, “Substituted aminothiazoles as DGKzeta inhibitors for immune activation” (Deutsches Krebsforschungszentrum, priority 2020, dated 2026).

biological target: T1, human DGKζ (Homo sapiens, UniProt Q13574); test: Human DGKζ kinase activity inhibition assay (ADP-Glo); assay type: biochemical; conditions: intermediates (lacking the R2 side chain; comparative); highest test concentration 20 μM; read-out: IC50 values of intermediates in in vitro human DGKζ kinase activity inhibition assays
T1 construct: made in house; host or cells: Sf9 insect cells, baculovirus
T1 sequence (Q13574 with tags, fused parts or gaps): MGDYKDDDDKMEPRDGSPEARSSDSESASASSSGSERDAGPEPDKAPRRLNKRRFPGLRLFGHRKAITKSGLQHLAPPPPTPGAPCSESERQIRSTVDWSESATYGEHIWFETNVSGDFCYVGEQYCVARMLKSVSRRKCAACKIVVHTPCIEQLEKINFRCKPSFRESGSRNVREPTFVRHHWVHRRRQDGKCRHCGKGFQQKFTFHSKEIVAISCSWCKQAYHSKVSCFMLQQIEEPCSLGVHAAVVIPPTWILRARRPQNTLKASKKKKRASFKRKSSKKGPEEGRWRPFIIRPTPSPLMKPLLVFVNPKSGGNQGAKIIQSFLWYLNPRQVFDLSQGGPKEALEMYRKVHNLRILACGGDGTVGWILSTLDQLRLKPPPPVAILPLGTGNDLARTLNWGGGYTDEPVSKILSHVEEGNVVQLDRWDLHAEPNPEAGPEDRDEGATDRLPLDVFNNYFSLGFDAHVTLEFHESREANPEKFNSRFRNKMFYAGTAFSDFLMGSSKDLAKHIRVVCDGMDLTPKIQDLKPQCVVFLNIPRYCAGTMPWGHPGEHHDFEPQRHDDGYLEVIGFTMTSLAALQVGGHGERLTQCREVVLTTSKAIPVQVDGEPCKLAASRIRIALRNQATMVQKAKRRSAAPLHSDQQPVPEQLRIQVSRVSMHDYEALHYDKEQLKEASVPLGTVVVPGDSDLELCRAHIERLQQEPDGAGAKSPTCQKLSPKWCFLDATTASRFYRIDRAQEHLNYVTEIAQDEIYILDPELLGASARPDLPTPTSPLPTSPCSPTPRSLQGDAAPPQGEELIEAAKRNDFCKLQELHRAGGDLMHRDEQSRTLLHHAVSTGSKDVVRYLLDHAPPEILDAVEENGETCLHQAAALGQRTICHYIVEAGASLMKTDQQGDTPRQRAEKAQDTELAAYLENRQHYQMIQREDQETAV
Experimental: Human DGKζ Kinase Activity Inhibition Assay
Human diacylglycerol kinase zeta (DGKζ) inhibitory activity of compounds of the present invention was quantified employing the human DGKζ kinase activity assay as described in the following paragraphs. In essence, the enzyme activity was measured by quantification of the adenosine-di-phosphate (ADP) generated as a co-product of the enzyme reaction via the “ADP-Glo™ Kinase Assay” kit from the company Promega. This detection system works as follows: In a first step the adenosine-tri-phosphate (ATP) not consumed in the kinase reaction is quantitatively converted to cyclic adenosine-mono-phosphate (cAMP) employing an adenylate cyclase (“ADP-Glo-reagent”), then the adenylate cyclase is stopped and the ADP generated in the kinase reaction is converted to ATP, which subsequently generates in a luciferase-based reaction a glow-luminescence signal (“Kinase Detection Reagent”).
C-terminally FLAG-tagged, recombinant full-length human DGKζ (inhouse expressed in baculovirus infected insect cells, purified using anti-Flag pulldown and size exclusion chromatography) was used as enzyme. As an alternative, commercially available enzyme by Carnabio can be used. As substrate for the kinase, 1,2-dioleoyl-sn-glycerol, reconstituted in octyl-β-D-glucopyranoside micelles, was used. […] Subsequently, 22.55 volumes of a 510 mM solution of octyl-β-D-glucopyranoside (Sigma-Aldrich, Cat. #08001-10G) in 50 mM MOPS buffer (pH 7.4) were added, and the mixture was sonicated in an ultrasonic bath for 20 s. Then 35 volumes of 50 mM MOPS buffer (pH 7.4) were added to yield a solution of 0.28 mM 1,2 dioleoyl-sn-glycerol and 200 mM octyl-β-D-glucopyranoside, which was aliquoted, flash-frozen in liquid nitrogen, and stored at −20° C. until use.
For the assay 50 nl of a 100-fold concentrated solution of the test compound in dimethyl sulfoxide (DMSO, Sigma) was pipetted into either a white 1536-well or a white low-volume 384-well microtiter plate (both Greiner Bio-One, Frickenhausen, Germany). […] The concentration of DGKζ was adjusted depending of the activity of the enzyme lot and was chosen appropriate to have the assay in the linear range, a typical concentration is about 0.1 nM. The reaction was stopped by the addition of 2.5 μL of “ADP-Glo-reagent” (1 to 1.5 diluted with water) and the resulting mixture was incubated at 22° C. for 1 h to convert the ATP not consumed in the kinase reaction completely to cAMP. Subsequently 2.5 μl of the “kinase detection reagent” (1.2 fold more concentrated than recommended by the producer) were added, the resulting mixture was incubated at 22° C. for 1 h and then the luminescence measured with a suitable measurement instrument (e.g. Viewlux™ from Perkin-Elmer). The amount of emitted light was taken as a measure for the amount of ADP generated and thereby for the activity of the DGKζ.
The data were normalised (enzyme reaction without inhibitor=0% inhibition, all other assay components but no enzyme=100% inhibition).

SMILES | IC50
Nc1nc(Nc2ccc(F)cc2)sc1C(=O)c1ccccc1 [Example 62] | > 20000 nM
Cc1ccc(C(=O)c2sc(Nc3ccc(F)cc3)nc2N)cc1 [Example 64] | > 20000 nM
Nc1nc(Nc2ccc(F)cc2)sc1C(=O)c1ccc(F)cc1 [Example 65] | > 20000 nM
Nc1nc(Nc2ccc(F)cc2F)sc1C(=O)c1ccccc1 [Example 66] | > 20000 nM
COc1ccc(Nc2nc(N)c(C(=O)c3ccccc3)s2)cc1 [Example 67] | > 20000 nM

same assay, conditions: recombinant full-length human DGKζ, 55 μM ATP, 7 μM 1,2-dioleoyl-sn-glycerol, 20 min at 22° C.; read-out: IC50 in vitro human DGKζ kinase activity inhibition assay

SMILES | IC50
CC(C(N)=O)N(c1ccc(Cl)c(F)c1)c1nc(N)c(C(=O)c2ccc(OCc3ccccc3)cc2)s1 (single isomer, unassigned) [Example 166.1, 2-(N-[4-amino-5-(4-benzyloxybenzoyl)thiazol-2-yl]-4-chloro-3-fluoro-anilino)propanamide] | 2 nM
CC(C(N)=O)N(c1ccc(F)c(F)c1)c1nc(N)c(C(=O)c2ccc(NC(=O)OCc3ccccc3)cc2)s1 (single isomer, unassigned) [Example 167.1, Benzyl N-[4-[4-amino-2-(N-(2-amino-1-methyl-2-oxo-ethyl)-3,4-difluoro-anilino)thiazole-5-carbonyl]phenyl]carbamate] | 3 nM
CC(C(N)=O)N(c1ccc(F)cc1)c1nc(N)c(C(=O)c2ccc(OCc3ccccc3)cc2)s1 (single isomer, unassigned) [Example 170.2, 2-(N-[4-amino-5-(4-benzyloxybenzoyl)thiazol-2-yl]-4-fluoro-anilino)propanamide] | 1000 nM
COc1ccc(C(=O)c2sc(N(c3ccc(Cl)c(F)c3)C(C)C(N)=O)nc2N)cn1 (single isomer, unassigned) [Example 172.1, 2-(N-[4-amino-5-(6-methoxypyridine-3-carbonyl)thiazol-2-yl]-4-chloro-3-fluoro-anilino)propanamide] | 24 nM
COc1ccc(C(=O)c2sc(N(c3ccc(F)cc3)C(C)C(N)=O)nc2C)cc1 (single isomer, unassigned) [Example 176.1, 2-(4-fluoro-N-[5-(4-methoxybenzoyl)-4-methyl-thiazol-2-yl]anilino)propanamide] | 34 nM
